{
  "source": "paper PMC11843658",
  "about": "(Journal of Enzyme Inhibition and Medicinal Chemistry, 2025)",
  "origin": "cited, not measured here",
  "molecular_target": "LSD1 (Homo sapiens, UniProt O60341)",
  "parameters": "purchased Cayman Chemical (Ann Arbor, MI)",
  "conditions": "cited from earlier work",
  "data": [
    {"smiles": "CC/C(=C\\c1ccccc1)[C@@H]1C[C@H]1NC1CC2(C1)CN(CCO)C2", "note": "[Compound 5]", "values": [
      {"measurement": "mode of LSD1 inhibition", "value": "covalently inhibits LSD1"}
    ]}
  ]
}
